Experimental data reported in patent publication US20100216848A1, “LIQUID PHARMACEUTICAL COMPOSITIONS FOR PARENTERAL ADMINISTRATION OF A SUBSTITUTED AMIDE” (priority 2007, published 2010).

How the values were obtained:
[1] = Solubility of Compound I anhydrous Polymorph B in various liquid vehicles (suspension equilibrated at least 24 hours, filtered, HPLC); format: physicochemical; details: aqueous with cosolvent or surfactant or cyclodextrin, thermodynamic from solid
Experimental: Solubility determinations were carried out at room temperature unless otherwise specified. Solubility of N-[1S,2S]-3-(4-chlorophenyl)-2-(3-cyanophenyl)-1-methylpropyl]-2-methyl-2-{[5-trifluoromethyl]pyridine-2-yl}oxy}propanamide (Compound I) as anhydrous unsolvated Polymorph B (such as prepared in Preparatory Example 2) was determined by preparing a suspension of anhydrous Polymorph B of Compound I in the solvent system. After equilibration for at least 24 hours, the suspension was filtered and the supernatant was analyzed by HPLC. Chromatography was performed on either a Vydac C18 300 Å 250×4.6 mm 5 μm particle size with in-line Phenomenex Security Guard w/C18 cartridge or on a Polaris C18-Ether columns or on a Polaris C8-Ether columns using 0.1% phosphoric acid in combination with methanol or acetonitrile depending on HPLC conditions. The compound was detected at 220 and 272 nm wavelength and assayed using standard curves. The results are presented below in Table 1, calculated based on mg/g vehicle.

[2] = Aqueous solubility of Compound I; format: physicochemical; details: water

- solubility ([1]; 40% H2O, 35% Captisol, 15% glycerol, 10% EtOH, 40% H20, room temperature): 20 µg/mL
- solubility ([1]; 50% H2O, 25% PG, 25% PEG300, 50% H20, room temperature): 70 µg/mL
- solubility ([1]; 90% H2O, 10% glycerol, 90% H20, room temperature): < 1 µg/mL
- solubility ([1]; 94.5% H2O, 0.5% Tween80, 5% EtOH, 94.5% H20, room temperature): 80 µg/mL
- solubility ([1]; 95.5% H2O, 0.5% Tween80, 95.5% H20, room temperature): 80 µg/mL
- solubility ([1]; 97.5% H2O, 2.5% Tween80, 97.5% H20, room temperature): 400 µg/mL
- solubility ([1]; 99.75% H2O, 0.25% Tween80, 99.75% H20, room temperature): 40 µg/mL
- solubility ([1]; 0.5% Tween80, 95.5% Saline, room temperature): 80 µg/mL
- solubility ([1]; 10% EtOH, 90% H2O, room temperature): < 1 µg/mL
- solubility ([1]; 15% glycerol, 10% EtOH, 75% H2O, room temperature): < 1 µg/mL
- solubility ([1]; 25% PEG400, 75% H2O, room temperature): 4 µg/mL
- solubility ([1]; 35% hydroxypropyl beta cyclodextrin, 18% glycerol, 10% EtOH, 37% H20, room temperature): 40 µg/mL
- solubility [2]: < 0.4 µg/mL
Compound: C[C@H](NC(=O)C(C)(C)Oc1ccc(C(F)(F)F)cn1)[C@@H](Cc1ccc(Cl)cc1)c1cccc(C#N)c1 [Compound I, N-[1S,2S]-3-[(4-chlorophenyl)-2-(3-cyanophenyl)-1-methylpropyl]-2-methyl-2-{[(5-trifluoromethyl)pyridine-2-yl]oxy}propanamide]
